Data taken from patent US12187746B2, “C26-linked rapamycin analogs as mTOR inhibitors” (Revolution Medicines, Inc., priority 2018, dated 2025).

Tests used:
P-Akt (S473) = test: Cell based AlphaLISA assay, inhibition of P-Akt (S473) in MDA-MB-468 cells; conditions: Homo sapiens, 4 h, 0.017-1,000 nM, two to four hours at 37° C., AlphaLisa SureFire Ultra, read-out: pIC50 for Inhibition of mTORC1 and mTORC2 Substrate Phosphorylation, p-AKT1/2/3-(S473) (converted)
Description: (§1) Cell Based AlphaLISA Assays For Determining IC50 For Inhibition of P-Akt (S473), P-4E-BP1 (T37/46), and P-P70S6K (T389) in MDA-MB-468 Cells
(§2) mTOR Kinase Cellular Assay
(§3) To measure functional activity of mTORC1 and mTORC2 in cells the phosphorylation of 4EBP1 (Thr37/46) and P70S6K (Thr389), and AKT1/2/3 (Ser473) was monitored using AlphaLisa SureFire Ultra Kits (Perkin Elmer). […] Incubations are terminated by removal of the assay buffer and addition of lysis buffer provided with the assay kit. Samples are processed according to the manufacturer's instructions. The Alpha signal from the respective phosphoproteins is measured in duplicate using a microplate reader (Envision, Perkin-Elmer or Spectramax M5, Molecular Devices). Inhibitor concentration response curves are analyzed using normalized IC50 regression curve fitting with control based normalization.

P-4E-BP1 (T37/46) = test: Cell based AlphaLISA assay, inhibition of P-4E-BP1 (T37/46) in MDA-MB-468 cells; conditions: Homo sapiens, 4 h, 0.017-1,000 nM, two to four hours at 37° C., AlphaLisa SureFire Ultra, read-out: pIC50 for Inhibition of mTORC1 and mTORC2 Substrate Phosphorylation, p-4E-BP1-(T37/46) (converted)
Description: as §1, §2, §3

P-P70S6K (T389) = test: Cell based AlphaLISA assay, inhibition of P-P70S6K (T389) in MDA-MB-468 cells; conditions: Homo sapiens, 4 h, 0.017-1,000 nM, two to four hours at 37° C., AlphaLisa SureFire Ultra, read-out: pIC50 for Inhibition of mTORC1 and mTORC2 Substrate Phosphorylation, p-P70S6K-(T389) (converted)
Description: as §1, §2, §3

| Structure (SMILES) | IC50 (P-Akt (S473)) | IC50 (P-4E-BP1 (T37/46)) | IC50 (P-P70S6K (T389)) |
| --- | --- | --- | --- |
| CO[C@H]1C[C@@H]2CC[C@@H](C)[C@@](O)(O2)C(=O)C(=O)N2CCCC[C@H]2C(=O)O[C@H]([C@H](C)C[C@@H]2CC[C@@H](O)[C@H](OC)C2)C[C@@H](O)[C@H](C)/C=C(\C)[C@@H](O)[C@@H](OC)C(=NOCC(=O)NCc2cnc(N3CCN(C(=O)CCOCCN4CCN(c5ncc(C(=O)N6CCc7cc(Cn8nc(-c9ccc%10oc(N)nc%10c9)c9c(N)ncnc98)ccc7C6)cn5)CC4)[C@@H](C(=O)O)C3)nc2)[C@H](C)C[C@H](C)/C=C/C=C/C=C/1C [Example 55] | > 1 µM | 0.00316 to 0.0316 µM | < 0.001 µM |
| CO[C@H]1C[C@@H]2CC[C@@H](C)[C@@](O)(O2)C(=O)C(=O)N2CCCC[C@H]2C(=O)O[C@H]([C@H](C)C[C@@H]2CC[C@@H](O)[C@H](OC)C2)C[C@@H](O)[C@H](C)/C=C(\C)[C@@H](O)[C@@H](OC)C(=NOCC(=O)NCc2cnc(N3CCN(C(=O)CCOCCN4CCN(CCOCCC(=O)N5CCc6cc(Cn7nc(-c8ccc9oc(N)nc9c8)c8c(N)ncnc87)ccc6C5)CC4)CC3)nc2)[C@H](C)C[C@H](C)/C=C/C=C/C=C/1C [Example 40] | > 1 µM | 0.00316 to 0.0316 µM | 0.001 to 0.01 µM |
| CO[C@H]1C[C@@H]2CC[C@@H](C)[C@@](O)(O2)C(=O)C(=O)N2CCCC[C@H]2C(=O)O[C@H]([C@H](C)C[C@@H]2CC[C@@H](O)[C@H](OC)C2)C[C@@H](O)[C@H](C)/C=C(\C)[C@@H](O)[C@@H](OC)C(=NOCC(=O)NCc2cnc(N3CCN(C(=O)CCCN4CCN(c5ncc(C(=O)NCCCCn6nc(-c7ccc8oc(N)nc8c7)c7c(N)ncnc76)cn5)CC4)CC3)nc2)[C@H](C)C[C@H](C)/C=C/C=C/C=C/1C [Example 37] | 0.00316 to 0.0316 µM | 0.00316 to 0.0316 µM | < 0.001 µM |
| CO[C@H]1C[C@@H]2CC[C@@H](C)[C@@](O)(O2)C(=O)C(=O)N2CCCC[C@H]2C(=O)O[C@H]([C@H](C)C[C@@H]2CC[C@@H](O)[C@H](OC)C2)C[C@@H](OC)[C@H](C)/C=C(\C)[C@@H](O)[C@@H](OC)C(=NOCC(=O)NCCOCCOCCOCCOCCOCCOCCOCCOCCC(=O)NCCCCn2nc(-c3cnc4[nH]ccc4c3)c3c(N)ncnc32)[C@H](C)C[C@H](C)/C=C/C=C/C=C/1C [Example 8] | > 1 µM | 0.00316 to 0.0316 µM | < 0.001 µM |
| CO[C@H]1C[C@@H]2CC[C@@H](C)[C@@](O)(O2)C(=O)C(=O)N2CCCC[C@H]2C(=O)O[C@H]([C@H](C)C[C@@H]2CC[C@@H](O)[C@H](OC)C2)C[C@@H](O)[C@H](C)/C=C(\C)[C@@H](O)[C@@H](OC)C(=NOCC(=O)NCCOCCOCCOCCOCCOCCOCCOCCOCCC(=O)N2CCc3cc(Cn4nc(-c5cnc6[nH]ccc6c5)c5c(N)ncnc54)ccc3C2)[C@H](C)C[C@H](C)/C=C/C=C/C=C/1C [Example 9] | > 1 µM | 0.00316 to 0.0316 µM | 0.001 to 0.01 µM |
| CO[C@H]1C[C@@H]2CC[C@@H](C)[C@@](O)(O2)C(=O)C(=O)N2CCCC[C@H]2C(=O)O[C@H]([C@H](C)C[C@@H]2CC[C@@H](O)[C@H](OC)C2)C[C@@H](O)[C@H](C)/C=C(\C)[C@@H](O)[C@@H](OC)C(=NOCC(=O)NCCOCCOCCOCCOCCOCCOCCOCCOCCC(=O)NCCS(=O)(=O)c2ccc(C(=O)N3CCOc4ccc(-c5ccc(N)nc5)cc4C3)c(C)c2F)[C@H](C)C[C@H](C)/C=C/C=C/C=C/1C [Example 46] | > 1 µM | 0.00316 to 0.0316 µM | 0.001 to 0.01 µM |
| CO[C@H]1C[C@@H]2CC[C@@H](C)[C@@](O)(O2)C(=O)C(=O)N2CCCC[C@H]2C(=O)O[C@H]([C@H](C)C[C@@H]2CC[C@@H](O)[C@H](OC)C2)C[C@@H](O)[C@H](C)/C=C(\C)[C@@H](O)[C@@H](OC)C(=NOCC(=O)NCc2cnc(N3CCN(C(=O)CCOCCN4CCC(N5CCC(C(=O)N6CCc7cc(Cn8nc(-c9ccc%10oc(N)nc%10c9)c9c(N)ncnc98)ccc7C6)CC5)CC4)CC3)nc2)[C@H](C)C[C@H](C)/C=C/C=C/C=C/1C [Example 63] | > 1 µM | 0.00316 to 0.0316 µM | < 0.001 µM |
| CO[C@H]1C[C@@H]2CC[C@@H](C)[C@@](O)(O2)C(=O)C(=O)N2CCCC[C@H]2C(=O)O[C@H]([C@H](C)C[C@@H]2CC[C@@H](O)[C@H](OC)C2)C[C@@H](O)[C@H](C)/C=C(\C)[C@@H](O)[C@@H](OC)C(=NOCC(=O)NCCOCCOCCOCCOCCOCCOCCC(=O)N2CCc3cc(Cn4nc(-c5ccc6oc(N)nc6c5)c5c(N)ncnc54)ccc3C2)[C@H](C)C[C@H](C)/C=C/C=C/C=C/1C [Example 5] | 0.0316 to 1 µM | < 0.00316 µM | < 0.001 µM |
| CO[C@H]1C[C@@H]2CC[C@@H](C)[C@@](O)(O2)C(=O)C(=O)N2CCCC[C@H]2C(=O)O[C@H]([C@H](C)C[C@@H]2CC[C@@H](O)[C@H](OC)C2)C[C@@H](O)[C@H](C)/C=C(\C)[C@@H](O)[C@@H](OC)C(=NOCC(=O)NCCOCCC(=O)NCc2cnc(N3CCN(C(=O)CCOCCN4CCN(c5ncc(C(=O)NCCCCn6nc(-c7ccc8oc(N)nc8c7)c7c(N)ncnc76)cn5)CC4)CC3)nc2)[C@H](C)C[C@H](C)/C=C/C=C/C=C/1C [Example 43] | 0.0316 to 1 µM | 0.00316 to 0.0316 µM | < 0.001 µM |
| CC(C)n1nc(-c2ccc3oc(N)nc3c2)c2c(N)ncnc21 [MLN-128, MLN0128, reference compound] | 0.00316 to 0.0316 µM | 0.00316 to 0.0316 µM | 0.001 to 0.01 µM |
| COc1ccc(-c2ccc3ncc4c(c3c2)n(-c2ccc(N3CCN(c5ncc6c(n5)CCN(C(=O)c5cnc(N7CCN(CCOCCC(=O)N8CCN(c9ncc(CNC(=O)CON=C%10[C@H](C)C[C@H](C)/C=C/C=C/C=C(\C)[C@@H](OC)C[C@@H]%11CC[C@@H](C)[C@@](O)(O%11)C(=O)C(=O)N%11CCCC[C@H]%11C(=O)O[C@H]([C@H](C)C[C@@H]%11CC[C@@H](O)[C@H](OC)C%11)C[C@@H](O)[C@H](C)/C=C(\C)[C@@H](O)[C@H]%10OC)cn9)CC8)CC7)nc5)C6)CC3)c(C(F)(F)F)c2)c(=O)n4C)cn1 [Example 33] | > 1 µM | > 1 µM | 0.01 to 1 µM |
| CO[C@H]1C[C@@H]2CC[C@@H](C)[C@@](O)(O2)C(=O)C(=O)N2CCCC[C@H]2C(=O)O[C@H]([C@H](C)C[C@@H]2CC[C@@H](O)[C@H](OC)C2)C[C@@H](O)[C@H](C)/C=C(\C)[C@@H](O)[C@@H](OC)C(=NOCC(=O)N2CCc3nc(N4CCN(c5ncc(C(=O)NCCOCCC(=O)N6CCc7cc(Cn8nc(-c9ccc%10oc(N)nc%10c9)c9c(N)ncnc98)ccc7C6)cn5)CC4)ncc3C2)[C@H](C)CC(C)/C=C/C=C/C=C/1C (stereo partly drawn) [Example 18] | > 1 µM | 0.00316 to 0.0316 µM | 0.001 to 0.01 µM |
| CO[C@H]1C[C@@H]2CC[C@@H](C)[C@@](O)(O2)C(=O)C(=O)N2CCCC[C@H]2C(=O)O[C@H]([C@H](C)C[C@@H]2CC[C@@H](O)[C@H](OC)C2)C[C@@H](O)[C@H](C)/C=C(\C)[C@@H](O)[C@@H](OC)C(=NOCC(=O)NCc2cnc(N3CCN(C(=O)CN(C)CC(=O)NCCOCCOCCC(=O)NCCCCn4nc(-c5ccc6oc(N)nc6c5)c5c(N)ncnc54)CC3)nc2)[C@H](C)C[C@H](C)/C=C/C=C/C=C/1C [Example 24] | 0.0316 to 1 µM | 0.0316 to 1 µM | 0.001 to 0.01 µM |
| CO[C@H]1C[C@@H]2CC[C@@H](C)[C@@](O)(O2)C(=O)C(=O)N2CCCC[C@H]2C(=O)O[C@H]([C@H](C)C[C@@H]2CC[C@@H](O)[C@H](OC)C2)C[C@@H](O)[C@H](C)/C=C(\C)[C@@H](O)[C@@H](OC)C(=NOCC(=O)NCCOCCOCCOCCOCCOCCOCCC(=O)N2CCC(N3CCC(C(=O)N4CCc5cc(Cn6nc(-c7ccc8oc(N)nc8c7)c7c(N)ncnc76)ccc5C4)CC3)CC2)[C@H](C)C[C@H](C)/C=C/C=C/C=C/1C [Example 28] | 0.0316 to 1 µM | 0.00316 to 0.0316 µM | 0.001 to 0.01 µM |
| CO[C@H]1C[C@@H]2CC[C@@H](C)[C@@](O)(O2)C(=O)C(=O)N2CCCC[C@H]2C(=O)O[C@H]([C@H](C)C[C@@H]2CC[C@@H](O)[C@H](OC)C2)C[C@@H](O)[C@H](C)/C=C(\C)[C@@H](O)[C@@H](OC)C(=NOCC(=O)NCc2cnc(N3CCC(N4CCC(C(=O)NCCOCCC(=O)N5CCc6cc(Cn7nc(-c8ccc9oc(N)nc9c8)c8c(N)ncnc87)ccc6C5)CC4)CC3)nc2)[C@H](C)C[C@H](C)/C=C/C=C/C=C/1C [Example 52] | > 1 µM | 0.00316 to 0.0316 µM | 0.001 to 0.01 µM |
| CO[C@H]1C[C@@H]2CC[C@@H](C)[C@@](O)(O2)C(=O)C(=O)N2CCCC[C@H]2C(=O)O[C@H]([C@H](C)C[C@@H]2CC[C@@H](O)[C@H](OC)C2)C[C@@H](O)[C@H](C)/C=C(\C)[C@@H](O)[C@@H](OC)C(=NOCC(=O)NCc2cnc(N3CCN(C(=O)CN(C)CC(=O)NCCOCCOCCC(=O)NCCCCn4nc(-c5cnc6[nH]ccc6c5)c5c(N)ncnc54)CC3)nc2)[C@H](C)C[C@H](C)/C=C/C=C/C=C/1C [Example 22] | > 1 µM | 0.0316 to 1 µM | 0.001 to 0.01 µM |
